Experimental data as given in patent publication US4163784A, “Heterocyclylcarbonyl derivatives of urea, agents for dissolution of gallstones” (Pfizer Inc., priority 1978, dated 1979).

How the values were obtained:
male CD-1 mice [1] = experiment: seven-day chronic toxicity test (hepatotoxicity); type: in vivo; settings: 500 mg./kg. daily orally in 0.1% methyl cellulose for 5 days
male CD-1 mice [2] = experiment: acute toxicity, single intraperitoneal dose; type: in vivo; settings: 1000 mg./kg. single i.p. dose, 0.6% Tween 20, 10 mice per group, observed one week
Experimental: The compounds were tested for acute toxicity in the following manner. Healthy male CD-1 mice (20-25 g.), 10 mice per group, received a single high dose of drug by intraperitoneal administration (1000 mg./kg., in 0.6% Tween 20, at a concentration of 70 mg./ml.). (Tween 20, polyoxyethylene sorbitan monolaurate, available from Atlas Chemical Industries, Inc.). The animals were observed continuously for at least two hours, again at 24 hours and daily thereafter for one week. Controls received vehicle alone, […]. and were asymptomatic throughout. The compounds tested and the widely varying mortality rates observed are tabulated below.

dogs = experiment: oral administration at high dose to dogs, toxicity; type: in vivo; settings: 250 mg./kg.
rats = experiment: oral administration at high dose to rats, toxicity; type: in vivo; settings: same high dose as dogs (250 mg./kg.)
[3] = system: pathogenic cholelithiasis process; settings: in man; cited from earlier work

| Structure (SMILES) | hepatotoxicity (male CD-1 mice [1]) | Mortality Rate (male CD-1 mice [2]) | further results |
| --- | --- | --- | --- |
| O=C(NCc1ccccc1)NC(=O)c1cccnc1Cl [2-chloro-N-(benzylaminocarbonyl)nicotinamide] | no hepatotoxicity | 0/10 | – |
| O=C(NC(=O)N1CC=CCC1)c1cccnc1 [3-pyridyl, 1-(1,2,3,6-tetrahydropyridyl)] | – | 9/10 | – |
| CCCCN(CCCC)C(=O)NC(=O)c1cccnc1 [3-pyridyl, N-(n-C 4 H9)2] | – | 10/10 | – |
| CCCCN(CCCC)C(=O)NC(=O)c1cncs1 [5-thiazolyl, N-(n-C 4 H9)2] | – | 4/10 | – |
| O=C(NC(=O)N1CC=CCC1)c1ccc(Cl)nc1 [6-Chloro-N-[1-(1,2,3,6-tetrahydropyridyl)carbonyl]nicotinamide] | produced hepatotoxicity | 0/10 | pathological signs in dogs (dogs): pathological signs suggestive of cardiac impairment; toxic effects in dogs: death (dogs; ten times the projected efficacious dose): death of the dogs; toxicological symptoms in rats (rats): only moderate toxicological symptoms, including lethargy, diminished appetite and weight gain, and slight abnormalities in clinical chemistry |
| C[C@H](CCC(=O)O)[C@H]1CC[C@H]2[C@@H]3[C@H](O)C[C@@H]4C[C@H](O)CC[C@]4(C)[C@H]3CC[C@]12C [chenodeoxycholic acid] | – | – | prevention and reversal of the pathogenic cholelithiasis process [3]: prevention and even reversal of the pathogenic cholelithiasis process in man |
